Earlier results on 1 compound are cited in patent publication US20230263755A1, “STABILIZATION OF ACETAMINOPHEN IN AQUEOUS SOLUTION” (Nostrum Pharmaceuticals, LLC, priority 2022, published 2023).

Molecules are shown by their SMILES.

For the compound `CC(=O)Nc1ccc(O)cc1` [acetaminophen, N-(4-hydroxyphenyl)acetamide], the half-life result is on record as “about 2 hours”.
